From patent US8778952B2, “Method of reducing intraosseous hypertension” (priority 2007, dated 2014)

Tested on: patient with severe arthritis in their knee
Assay: Case observation: MRI and reported pain of a patient's arthritic knee before and after routine use of a phosphodiesterase inhibitor
Type: in vivo, human
Conditions: one patient, 50 mg of sildenafil, once per day
Source text: A physician, who is also the inventor of the present invention, performed an arthroscopic surgical procedure on a patient suffering from a loose cartilage body in the setting of severe arthritis in their knee. The patient was a competitive senior tennis player and declined knee replacement for that reason. The purpose of the procedure was merely to remove a loose body and abate the mechanical symptoms it caused. Approximately one year later, the patient returned to their physician for evaluation of what was believed to be an unrelated ganglion cyst on the same knee. […] Upon questioning by their physician, the patient explained that the only difference in their medical history (including lifestyle, activity, new illness and medications) between the time of the first and second MRIs was that they started using a phosphodiesterase inhibitor. Specifically, the patient started using Viagra® (50 mg of sildenafil, once per day). There were no other changes in the interval medical history.

## CCCc1nn(C)c2c(=O)[nH]c(-c3cc(S(=O)(=O)N4CCN(C)CC4)ccc3OCC)nc12 [Viagra®, sildenafil]
FIG. 2 MRI compared with FIG. 1 MRI approximately one year earlier
  intraosseous hypertension / bone edema on coronal MRI of knee (white spots on tibial spines): dissipation of the intraosseous hypertension
Few months prior to second MRI, approximately one year after first MRI
  knee pain from arthritis (reported by patient): reduction in knee pain
